Data as given in patent publication US10168338B2, “Methods of identifying modulators of sestrin-gator-2 interaction for modulating mTORC1 activity” (Whitehead Institute for Biomedical Research, priority 2014, dated 2019).

Assays:
Sestrin2 = target: T1, Sestrin2 (Homo sapiens, UniProt P58004); test: [3H]-labeled amino acid binding to FLAG-Sestrin2 immunoprecipitated from HEK-293T cells
T1 construct: expressed in transfected cells; host or cells: HEK-293T, transient transfection of a pRK5-based cDNA plasmid, anti-FLAG immunoprecipitation
T1 sequence (P58004 1-480): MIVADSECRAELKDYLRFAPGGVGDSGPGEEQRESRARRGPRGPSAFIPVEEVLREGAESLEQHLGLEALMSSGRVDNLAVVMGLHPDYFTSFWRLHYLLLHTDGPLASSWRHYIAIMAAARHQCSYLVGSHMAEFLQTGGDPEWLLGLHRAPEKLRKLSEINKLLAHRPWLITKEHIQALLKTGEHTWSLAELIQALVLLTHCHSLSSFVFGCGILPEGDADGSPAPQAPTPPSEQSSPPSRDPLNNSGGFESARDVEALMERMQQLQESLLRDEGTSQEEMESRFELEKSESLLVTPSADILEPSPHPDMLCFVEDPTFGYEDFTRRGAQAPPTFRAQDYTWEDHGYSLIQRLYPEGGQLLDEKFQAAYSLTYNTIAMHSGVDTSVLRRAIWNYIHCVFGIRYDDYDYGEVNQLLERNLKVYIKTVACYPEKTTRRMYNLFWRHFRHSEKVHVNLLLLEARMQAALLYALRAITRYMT
Experimental: Four million HEK-293T cells were plated in a 15 cm plate four days prior to the experiment. Each plate yielded the protein for one sample. Forty-eight hours after plating, the cells were transfected via the polyethylenimine method (O. Boussif et al., PNAS (USA), 92:7297-7301 (1995)) with the pRK5-based cDNA expression plasmids indicated in the figures in the following amounts: 5 μgFLAG-Sestrin2; 12 μg of the negative control Rap2A; 5 μg WDR24; 2 μg WDR24 with 4 μg each of HA-Seh1L, HA-Sec13, HA-Mios, and HA-WDR59; 12 […] (CG11299-PD); 12 μgFLAG-Sestrin1.1; 12 μg FLAG-Sestrin1.2; 12 μg FLAG-Sestrin3; 12 μg FLAG-Sestrin2 mutants (L261A, E451A, S190A) and up to 20 μg total DNA with empty-PRK5. Forty-eight hours after transfection cells were lysed as described in Example 1. If multiple samples of the same type were represented in the experiment, the cell lysates were combined, mixed, and evenly distributed amongst the relevant tubes, to ensure equal protein amounts across samples of the same type.
Anti-FLAG immunoprecipitates were prepared as previously described, with the exception that, prior to incubation with lysates, the beads were blocked by rotating in 1 μg/μl bovine serum albumin (BSA) for 20 minutes at 4° C. and subsequently washed twice in lysis buffer. Thirty μl of the 50/50 slurry of beads in lysis buffer was added to each of the clarified cell lysates and incubated as previously described in Example 1.
For the binding assays, two tubes at a time were washed as previously indicated for immunoprecipitations. All the liquid was subsequently aspirated and a 15 μl aliquot of proteins bound to the beads was incubated for one hour on ice in cytosolic buffer (0.1% Triton, 40 mM HEPES pH 7.4, 10 mM NaCl, 150 mM KCl, 2.5 mM MgCl2) with the appropriate amount of [^3H]-labeled amino acids and unlabeled amino acids. Tubes were flicked every five minutes. At the end of one hour, the beads were briefly spun down, aspirated dry, and rapidly washed three times with binding wash buffer (0.1% Triton, 40 mM HEPES pH 7.4, 150 mM NaCl). The beads were aspirated dry again and resuspended in 85 μl of binding wash buffer. With a cut tip, each sample was mixed well and three 10 μl aliquots were separately quantified using a TriCarb® scintillation counter (PerkinElmer). This process was repeated in pairs for each sample, to ensure similar incubation and wash times for all samples analyzed across different experiments.
Amino acid affinities to Sestrin2 were determined by first normalizing the bound [^3H]-labeled amino acid concentrations across three separate binding assays performed with varying amounts of unlabeled amino acid competition. These values were plotted and fit to a hyperbolic equation ([…]) to estimate the IC50 value. Kd or Ki values were derived from the IC50 value using the equation: Kd or Ki=IC50/(1+([[^3H]Leucine])/Kd).

[1] = target: T2, bacterially-produced Sestrin2 (Homo sapiens, UniProt P58004); test: [3H]-leucine binding to bacterially-produced His-MBP-Sestrin2 on Ni-NTA resin; conditions: RagA-RagC heterodimer as control
T2 construct: made in house; host or cells: Escherichia coli BL21 DE3 star
T2 sequence (P58004 1-480): T1 sequence (P58004 1-480)
Experimental: Recombinant Sestrin2 was expressed in Escherichia coli (strain BL21 DE3 star) from the His-MBP-TEV-Sestrin2 in pMAL6H-CSXT plasmid. The bacterial cultures were grown at 30° C. to an optical density of 0.4 at which point the temperature was lowered to 18° C. After 30 minutes at 18° C., the cultures were induced overnight at 18° C. with 0.5 mM IPTG. The cells were subsequently resuspended in lysis buffer with TCEP (50 mM Tris pH 7.4, 200 mM NaCl, 5 mM MgCl2, 0.1% CHAPS, 1 mM TCEP, 200 μM leucine, and protease inhibitor tablets), which was then supplemented with lysozyme and crude DNAse. The cells underwent mechanical homogenization and the lysates were cleared by centrifugation and then loaded onto the Ni-NTA resin. […]
For binding assays performed with bacterially-produced proteins, 23.6 μg His-RagA/RagC, 23.6 μg His-MBP-TEV-Sestrin2, or 73.6 μg His-MBP-TEV-Sestrin2 were diluted into 500 μl lysis buffer (50 mM Tris pH 7.4, 200 mM NaCl, 5 mM MgCl2, 0.1% CHAPS) and incubated with 15 μl compact Ni-NTA resin as previously described. […] The samples were then well mixed with a cut tip and 10 μl of each was loaded into scintillation fluid in triplicate and quantified with a TriCarb® Scintillation Counter. Samples performed in parallel were eluted with lysis buffer+300 mM imidazole and analyzed by SDS-PAGE as described above.

binding of radiolabeled amino acid to Sestrin2 (Sestrin2; FLAG-Sestrin2 from HEK-293T, competed by excess unlabeled leucine): bound to Sestrin2 | Kd (Sestrin2; competition with unlabeled leucine, 10 μM 3H-leucine, three experiments): 20 ± 5 µM | binding of radiolabelled leucine to bacterially-produced Sestrin2 [1]: bound to bacterially-produced Sestrin2
SMILES: CC(C)C[C@H](N)C(=O)O [leucine]
